Our source for the IC50 values is patent US20250019382A1, “NOVEL INHIBITORS OF CYCLIN-DEPENDENT KINASES” (Origenis Gmbh, priority 2021, published 2025).

The target in assay [1] is T1, CDK2/cyclin A1 (Homo sapiens, UniProt P24941).
T1 construct: purchased Invitrogen Ltd., Paisley, UK (SelectScreen service)
The experiment in a line: CDK2/cyclin A1 LanthaScreen (SelectScreen), second list. It counts as binding. As to conditions: second list under the same heading; duplicate, averaged. As for the experimental part:
(§1) The CDK2 inhibitory activity of the compounds of the invention was measured in combination with different […] and assay systems. The SelectScreen™ assessment of the kinase inhibitory activity of CDK2 data point was performed in duplicate and averaged data is reported here. The SelectScreen™ kinase inhibitor assay service was used (Invitrogen Ltd., Paisley, UK) to investigate the ability of the compounds of the invention to inhibit CDK2 in dose dependent manner using ten inhibitor concentrations from 10 micromolar down to […] in half-logarithmic steps. The inhibitor concentration was plotted against the percent inhibition or displacement to determine the IC50 using XLFit 5.5 (IDBS, Guildford) to fit to a sigmoidal dose response curve with a variable slope.

Another assay deals with T2, CDK2/cyclin A (Homo sapiens, UniProt P24941).
T2 construct: purchased Invitrogen Ltd., Paisley, UK (SelectScreen service)
The experiment in a line: CDK2/cyclin A Z'-LYTE (SelectScreen). It counts as biochemical. As to conditions: duplicate, averaged. As to the method: as §1

The target in assay [2] is T1, CDK2/cyclin A1. Kind of assay: CDK2/cyclin A1 LanthaScreen (SelectScreen). As to conditions: first list; duplicate, averaged. It counts as binding. As to the method:
as §1

The next assay deals with T3, CDK9/CyclinT1 (Homo sapiens, UniProt P50750).
T3 construct: purchased ProQinase/Reaction Biology, USA #0371-0345-1
T3 sequence (P50750 whole entry): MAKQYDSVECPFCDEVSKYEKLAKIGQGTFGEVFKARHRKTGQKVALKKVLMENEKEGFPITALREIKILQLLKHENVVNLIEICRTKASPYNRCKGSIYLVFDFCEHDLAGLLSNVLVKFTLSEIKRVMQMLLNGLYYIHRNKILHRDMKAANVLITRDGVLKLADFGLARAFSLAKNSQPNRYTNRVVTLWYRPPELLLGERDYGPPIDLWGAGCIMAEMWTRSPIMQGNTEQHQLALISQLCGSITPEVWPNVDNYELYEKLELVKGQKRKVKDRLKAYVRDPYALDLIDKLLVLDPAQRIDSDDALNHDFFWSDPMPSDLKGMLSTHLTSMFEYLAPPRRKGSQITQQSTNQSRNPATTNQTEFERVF
T3 sequence (O60563 whole entry partner): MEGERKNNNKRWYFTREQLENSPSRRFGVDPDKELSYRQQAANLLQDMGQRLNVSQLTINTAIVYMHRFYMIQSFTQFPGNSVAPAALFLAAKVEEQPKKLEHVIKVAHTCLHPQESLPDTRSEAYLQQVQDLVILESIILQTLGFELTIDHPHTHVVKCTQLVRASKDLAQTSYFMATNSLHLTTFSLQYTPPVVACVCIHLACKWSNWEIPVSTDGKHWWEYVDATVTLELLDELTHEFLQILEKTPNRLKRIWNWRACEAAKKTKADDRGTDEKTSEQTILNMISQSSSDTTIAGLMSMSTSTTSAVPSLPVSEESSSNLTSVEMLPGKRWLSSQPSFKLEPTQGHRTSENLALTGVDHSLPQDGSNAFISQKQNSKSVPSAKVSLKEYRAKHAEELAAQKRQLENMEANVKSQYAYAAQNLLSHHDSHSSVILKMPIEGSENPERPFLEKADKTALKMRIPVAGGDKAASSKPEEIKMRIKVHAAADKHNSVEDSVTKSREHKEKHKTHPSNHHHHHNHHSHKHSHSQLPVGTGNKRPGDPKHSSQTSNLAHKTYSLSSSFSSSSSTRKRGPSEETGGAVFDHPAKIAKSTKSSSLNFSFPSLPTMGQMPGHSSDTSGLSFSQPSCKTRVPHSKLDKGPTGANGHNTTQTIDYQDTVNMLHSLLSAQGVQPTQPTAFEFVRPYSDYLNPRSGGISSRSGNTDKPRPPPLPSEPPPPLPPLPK
Kind of assay: CDK9/T1 ADPGlo kinase assay. As to conditions: CDK9/CyclinT1 6 nM, ATP 10 microM, PDKtide 40 microM, 120 min RT. It counts as biochemical. In a few lines: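 Human CDK9/CyclinT1 (6 nM final) was preincubated 10 min with compound (12-point 1:3 series from 5 μM), then reacted 120 min at RT with PDKtide (40 μM final) and ATP (10 μM final). ADP was read by ADP-Glo luminescence; IC50 from variable-slope sigmoidal fit.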

For the next assay, the target named is T4, CDK2/cyclin E1 (Homo sapiens, UniProt P24941).
T4 construct: purchased Invitrogen Ltd., Paisley, UK (SelectScreen service)
Kind of assay: CDK2/cyclin E1 LanthaScreen (SelectScreen). It counts as binding. The note with it: duplicate, averaged. As for the experimental part: as §1

Bounds are passed on as bounds.

As for `Fc1cccc(F)c1-c1nc(N[C@H]2CC[C@H](N3CCOCC3)CC2)n2ncc(Cl)c2n1` [Example #89, 8-chloro-2-(2,6-difluorophenyl)-N-((1r,4r)-4-morpholinocyclohexyl)pyrazolo[1,5-a][1,3,5]triazin-4-amine], the IC50 at CDK2/cyclin A1 [1] is < 200 nM; on CDK2/cyclin A, < 1000 nM; on CDK2/cyclin A1 [2] it was < 1000 nM; against CDK9/CyclinT1, < 20 nM; at CDK2/cyclin E1 it was < 200 nM.
Regarding `N[C@H]1CC[C@H](Nc2nc(-c3c(F)cccc3F)nc3c(Cl)cnn23)CC1` [Example #108, (1r,4r)-N1-(8-chloro-2-(2,6-difluorophenyl)pyrazolo[1,5-a][1,3,5]triazin-4-yl)cyclohexane-1,4-diamine], the IC50 at CDK2/cyclin A1 [1] was < 20 nM; on CDK2/cyclin A, < 200 nM; at CDK2/cyclin A1 [2], < 200 nM; at CDK9/CyclinT1, < 20 nM; at CDK2/cyclin E1, < 200 nM.
`CN(C)[C@H]1CC[C@H](Nc2nc(-c3c(F)cccc3F)nc3c(Cl)cnn23)CC1` [Example #109, (1r,4r)-N1-(8-chloro-2-(2,6-difluorophenyl)pyrazolo[1,5-a][1,3,5]triazin-4-yl)-N4,N4-dimethylcyclohexane-1,4-diamine]: the IC50 on CDK2/cyclin A1 [1] was < 200 nM; at CDK2/cyclin A, < 1000 nM; on CDK2/cyclin A1 [2] it was < 1000 nM; against CDK9/CyclinT1 it was < 20 nM; at CDK2/cyclin E1, < 200 nM.
As to `Fc1cccc(F)c1-c1nc(N[C@H]2CC[C@H](N3CCCCC3)CC2)n2ncc(Cl)c2n1` [Example #110, 8-chloro-2-(2,6-difluorophenyl)-N-((1r,4r)-4-(piperidin-1-yl)cyclohexyl)pyrazolo[1,5-a][1,3,5]triazin-4-amine], the IC50 was < 200 nM at CDK2/cyclin A1 [1]; < 1000 nM on CDK2/cyclin A; < 200 nM at CDK2/cyclin A1 [2]; < 20 nM against CDK9/CyclinT1; < 200 nM at CDK2/cyclin E1.
With `COCCNC1CCC(Nc2nc(-c3c(F)cccc3F)nc3c(Cl)cnn23)CC1` (stereo not shown) [Example #124, (1r,4r)-N1-(8-chloro-2-(2,6-difluorophenyl)pyrazolo[1,5-a][1,3,5]triazin-4-yl)-N4-(2-methoxyethyl)cyclohexane-1,4-diamine], the IC50 was < 200 nM at CDK2/cyclin A1 [1]; < 1000 nM on CDK2/cyclin A; < 1000 nM at CDK2/cyclin A1 [2]; < 200 nM against CDK9/CyclinT1; < 200 nM on CDK2/cyclin E1.
With `FCCN[C@H]1CC[C@H](Nc2nc(-c3c(F)cccc3F)nc3c(Cl)cnn23)CC1` [Example #126, (1r,4r)-N1-(8-chloro-2-(2,6-difluorophenyl)pyrazolo[1,5-a][1,3,5]triazin-4-yl)-N4-(2-fluoroethyl)cyclohexane-1,4-diamine], the IC50 on CDK2/cyclin A1 [1] is < 200 nM; at CDK2/cyclin A, < 200 nM; at CDK2/cyclin A1 [2] it was < 200 nM; at CDK9/CyclinT1, < 20 nM; at CDK2/cyclin E1 it was < 200 nM.
As to `FCCCN[C@H]1CC[C@H](Nc2nc(-c3c(F)cccc3F)nc3c(Cl)cnn23)CC1` [Example #128, (1r,4r)-N1-(8-chloro-2-(2,6-difluorophenyl)pyrazolo[1,5-a][1,3,5]triazin-4-yl)-N4-(3-fluoropropyl)cyclohexane-1,4-diamine], the IC50 at CDK2/cyclin A1 [1] is < 200 nM; on CDK2/cyclin A it was < 1000 nM; on CDK2/cyclin A1 [2], < 200 nM; against CDK9/CyclinT1 it was < 20 nM; at CDK2/cyclin E1, < 200 nM.
Turning to `Cc1cc(C)c(CNc2nc(-c3c(F)cccc3F)nc3c(Cl)cnn23)cn1` [Example #145, 8-chloro-2-(2,6-difluorophenyl)-N-((4,6-dimethylpyridin-3-yl)methyl)pyrazolo[1,5-a][1,3,5]triazin-4-amine], the IC50 against CDK9/CyclinT1 is < 20 nM.
Same read-out and setting: then `Fc1cccc(F)c1-c1nc(NCc2cccnc2)n2ncc(Cl)c2n1` [Example #146, 8-chloro-2-(2,6-difluorophenyl)-N-(pyridin-3-ylmethyl)pyrazolo[1,5-a][1,3,5]triazin-4-amine], with < 20 nM.
